Results published in patent US4331659A, “Antibiotic U-62,162 and process of making” (The Upjohn Company, priority 1980, dated 1982).
In brackets after ≈: the same amount, converted by molar mass.

Tests used:
H. influenzae = assay: standard agar-dilution method, MIC against ampicillin-resistant and ampicillin-susceptible H. influenzae type b; type: cell-based
Experimental: Antibiotic U-62,162 was also tested for activity against a group of ampicillin-resistant and ampicillin-susceptible H. influenzae type b.
A solution of the compound was prepared in dimethylsulfoxide (DMSO), diluted in Brain Heart Infusion Broth (BHIB) and MIC's were determined using the standard agar-dilution method.

Gram-positive bacteria = assay: antibacterial activity against Gram-positive bacteria; type: cell-based
Experimental: (§1) The antibacterial assay is a standard agar dilution assay. The MIC is determined by standard methods using two-fold dilutions of the antibiotic in Brain Heart Infusion Broth (Difco Lab., Detroit, Michigan). The inocula are overnight cultures of the test organisms, diluted so that the final population contains approximately 10^5 cells/ml. The solutions are incubated at 28° to 37° C. for 24 hours. The lowest antibiotic concentration which allows no growth=MIC or minimum inhibitory concentration.

Staphylococcus aureus = assay: standard agar dilution assay (MIC); type: cell-based; conditions: 24 hours, 28° to 37° C.
Experimental: as §1

Klebsiella pneumoniae = assay: standard agar dilution assay (MIC); type: cell-based; conditions: UC 58; 24 hours, 28° to 37° C.
Experimental: as §1

[1] = system: Salmonella schottmuelleri; assay: standard agar dilution assay (MIC); type: cell-based; conditions: UC 126; 24 hours, 28° to 37° C.
Experimental: as §1

Enterococcus sp. = assay: standard agar dilution assay (MIC); type: cell-based; conditions: UC 701; 24 hours, 28° to 37° C.
Experimental: as §1

Escherichia coli = assay: standard agar dilution assay (MIC); type: cell-based; conditions: UC 45; 24 hours, 28° to 37° C.
Experimental: as §1

Streptococcus faecalis = assay: standard agar dilution assay (MIC); type: cell-based; conditions: UC 694; 24 hours, 28° to 37° C.
Experimental: as §1

Pseudomonas aeruginosa = assay: standard agar dilution assay (MIC); type: cell-based; conditions: UC 95; 24 hours, 28° to 37° C.
Experimental: as §1

Streptococcus pyogenes = assay: standard agar dilution assay (MIC); type: cell-based; conditions: UC 152; 24 hours, 28° to 37° C.
Experimental: as §1

Streptococcus pneumoniae = assay: standard agar dilution assay (MIC); type: cell-based; conditions: UC 41; 24 hours, 28° to 37° C.
Experimental: as §1

S. aureus 6029 = assay: disc plate assay (zone of inhibition, BU); type: cell-based; conditions: essentially pure crystalline, after countercurrent distribution
Experimental: Buffered (pH 5.8) silica gel is prepared by treating 1 kg of silica gel 60 with a solution of 54.4 g of KH2 PO4 in 800 ml of water. This is dried 16 hours at 110°. A 1 inch (diameter) column containing 60 g of buffered (pH 5.8) silica gel is poured in a slurry with chloroform. To this is added 250 mg of crude U-62,162, prepared as described above, in chloroform. The column is developed first with 120 ml of CHCl3, then with CHCl3 :MeOH (94:6 v/v). Fractions of 5 ml each are collected beginning when the mixed solvent is introduced. They are assayed by plating 12 mm discs containing […] aliquots on S. aureus 6029 trays. Fractions 55-65, containing most of the activity, are pooled and evaporated, 90 mg, […], 17,200 total BU.
A preparation of antibiotic U-62,162, as described above, (3 g) is distributed for 300 transfers in the two-phase solvent system afforded by ethyl acetate:ethanol (95%):cyclohexane:water (2:3:3:2 v/v). Phase volumes are 10 ml each. Fractions 120-150 are combined and the residue from these after evaporation affords essentially pure crystalline antibiotic U-62,162, 1 g, assaying 800-1500 BU/mg against S. aureus 6029. A BU is the amount of material distributed on a 12 mm disc which will give a 20 mm zone of inhibition.

stability to pH = type: physicochemical; conditions: pH 8.5 and higher
Solubilities = type: physicochemical; conditions: lower alcohols (1-4 carbons), esters, ethers, aromatic hydrocarbons, dimethylformamide, dimethylsulfoxide, lower ketones (3-6 carbons)

CC(C)=CC(C)CC(C)/C=C/C(=O)NC1=CC(O)(CCCCC(=O)O)C2OC2C1=O (centres unmarked) [U-62,162]
MIC (H. influenzae; UC 6482, ampicillin susceptible): 62.5 µg/mL (≈ 149 µM) | MIC (H. influenzae; UC 6483, ampicillin resistant): 31.25 µg/mL (≈ 74.5 µM) | MIC (H. influenzae; UC 6484, ampicillin resistant): 31.25 µg/mL (≈ 74.5 µM) | MIC (H. influenzae; UC 6485, ampicillin susceptible): 31.25 µg/mL (≈ 74.5 µM) | MIC (H. influenzae; UC 6486, ampicillin susceptible): 31.25 µg/mL (≈ 74.5 µM) | MIC (H. influenzae; UC 6582, ampicillin resistant): 31.25 µg/mL (≈ 74.5 µM) | MIC (H. influenzae; UC 6583, ampicillin resistant): 31.25 µg/mL (≈ 74.5 µM) | MIC (H. influenzae; UC 6585, ampicillin resistant): 31.25 µg/mL (≈ 74.5 µM) | MIC (H. influenzae; UC 6586, ampicillin resistant): 31.25 µg/mL (≈ 74.5 µM) | MIC (H. influenzae; UC 6587, ampicillin resistant): 31.25 µg/mL (≈ 74.5 µM) | MIC (H. influenzae; UC 6589, ampicillin resistant): 31.25 µg/mL (≈ 74.5 µM) | MIC (H. influenzae; UC 6592, ampicillin resistant): 15.6 µg/mL (≈ 37.2 µM) | MIC (H. influenzae; UC 6595, ampicillin resistant): 31.25 µg/mL (≈ 74.5 µM) | MIC (H. influenzae; UC 6596, ampicillin resistant): 31.25 µg/mL (≈ 74.5 µM) | MIC (H. influenzae; UC 6597, ampicillin susceptible): 31.25 µg/mL (≈ 74.5 µM) | MIC (H. influenzae; UC 6598, ampicillin susceptible): 31.25 µg/mL (≈ 74.5 µM) | activity against H. influenzae type b cultures (in words) (H. influenzae; all of the cultures tested): moderate activity | activity against various Gram-positive bacteria (in words) (Gram-positive bacteria): active | Minimum Inhibitory Concentration (Staphylococcus aureus; UC 76): 1.0 µg/mL | Minimum Inhibitory Concentration (Staphylococcus aureus; UC 6685): 1.0 µg/mL | Minimum Inhibitory Concentration (Staphylococcus aureus; UC 6690): 1.0 µg/mL | Minimum Inhibitory Concentration (Klebsiella pneumoniae): > 1000 µg/mL | Minimum Inhibitory Concentration [1]: > 1000 µg/mL | Minimum Inhibitory Concentration (Enterococcus sp.): 7.8 µg/mL | Minimum Inhibitory Concentration (Escherichia coli): > 1000 µg/mL | Minimum Inhibitory Concentration (Streptococcus faecalis): 7.8 µg/mL | Minimum Inhibitory Concentration (Pseudomonas aeruginosa): > 1000 µg/mL | Minimum Inhibitory Concentration (Streptococcus pyogenes): 125 µg/mL | Minimum Inhibitory Concentration (Streptococcus pneumoniae): 1.0 µg/mL | potency (BU; amount on a 12 mm disc which will give a 20 mm zone of inhibition) (S. aureus 6029): 800-1500 BU/mg | stability (stability to pH): unstable | Solubilities (Solubilities): soluble
